Literature values, collected in patent publication US12083128B2, “Use of medications with neuroprotective properties to prevent or reduce the risk of ischemia-reperfusion injury in a subject” (priority 2015, dated 2024).
Like-named read-outs stand apart in the source and are kept apart here.

Experiments:
retinal gangion cells [1] = details: in vitro; cited from earlier work
retinal gangion cells [2] = details: in vivo, animals; cited from earlier work
[3] = system: endothelin 1 induced ischemic retinal injury; details: daily topical administration, animals; cited from earlier work
optic nerve blood flow = details: animal models; cited from earlier work
[4] = intravitreal injections for AMD, 49 eyes followed for 12 months; cited from earlier work

| Compound | protection of retinal ganglion cells from apoptosis (retinal gangion cells [1]) | protection of retinal ganglion cells from apoptosis (retinal gangion cells [2]) | RNFL thickness in treated eyes [3] | protection against endothelin 1 induced ischemic retinal injury [3] | optic nerve blood flow (optic nerve blood flow) | RNFL thinning [4] |
| --- | --- | --- | --- | --- | --- | --- |
| CC(C)OC(=O)CCC/C=C\C[C@@H]1[C@@H](/C=C/C(F)(F)COc2ccccc2)[C@H](O)C[C@@H]1O [tafluprost] | protects retinal gangion cells from apoptosis | protects retinal gangion cells from apoptosis | thicker in treated eyes | protective | improved optic nerve blood flow | – |
| Ranibizumab | – | – | – | – | – | caused significant RNFL thinning |
